Measured values: patent US4122077A, “Somatostatin analogs” (American Home Products Corporation, priority 1977, dated 1978)
“And” between values parts separate entries of the source, which are not always exact repeats. Identical values can stand only once. Where a SMILES comes first, the peptide text is derived from it. Bridges are numbered along the chain shown (N, C = ends). [ ]: non-standard residue; d: D form.

Tests used:
growth hormone (GH) = test: Suppression of growth hormone (duration of activity after sc injection); type: in vivo, rats
Method: A subcutaneous (sc) injection of peptide solubilized or suspended in physiological saline, is given to Charles River CD® nonfasted male rats. Matched saline control solution sc injected rats serve as control animals so that every experimental rat is paired with a control rat. The rats are kept in separate cages and 20 minutes before the end of the test time period they are given an intraperitoneal (i.p.) injection of Nembutal® at a dose of 50 mg/kg. Blood samples are obtained by cardiac puncture and the plasma separated for the radioimmunoassay of growth hormone (GH) concentration (ng/ml.). Time periods after injection of 2, 4, 5, and 6 hours are generally used to test the duration of the activity of the peptide to suppress circulating peripheral GH levels. Comparisons between control and experimental GH values at each time are evaluated by the Student "t" test and statistical significance (p) at the 0.05 level or lower is used as the index of activity.

growth hormone = test: Suppression of growth hormone, glucagon and insulin (arginine-stimulated, nembutal rats): GH; type: in vivo
Method: (§1) Albino male rats are arranged in three groups (nine rats/group) and injected i.p. with nembutal at 50mg/kg. 15 minutes after the nembutal injection they are injected s.c. according to group with (a) test compound, typically 10-2000 μg/kg.; (b) SRIF 200 μg/kg.; or (c) physiological saline. 10 minutes later 0.5 ml. of arginine (300 mg/ml., pH 7.2) is injected into the heart. The rats are decapitated 5 minutes after receiving the arginine, and the blood is collected into Trasylol-EDTA. Appropriate aliquots are then assayed for growth hormone, glucagon and insulin. […] Comparisons between control and experimental values are statistically evaluated by the analysis of variants method and statistical significance (p) at 0.05 or lower is used as the index of activity.

insulin = test: Suppression of growth hormone, glucagon and insulin (arginine-stimulated, nembutal rats): insulin; type: in vivo; conditions: arginine challenge
Method: as §1

glucagon = test: Suppression of growth hormone, glucagon and insulin (arginine-stimulated, nembutal rats): glucagon; type: in vivo; conditions: arginine challenge
Method: as §1

[1] = 200 μg/kg. s.c., arginine challenge (table 5)
[2] = 100 μg/kg. s.c., arginine challenge (table 5)

C[C@@H](O)[C@@H]1NC(=O)[C@H](Cc2ccccc2)NC(=O)[C@H]([C@@H](C)O)NC(=O)[C@H](CCCCN)NC(=O)[C@@H](Cc2c[nH]c3ccccc23)NC(=O)[C@H](Cc2ccccc2)NC(=O)[C@H](Cc2ccccc2)NC(=O)[C@@H](Cc2c[nH]c3ccccc23)NC(=O)[C@@H](Cc2ccc(O)cc2)NC(=O)[C@@H](N)CSSC[C@@H](C(=O)O)NC(=O)[C@H](CO)NC1=O [B, L-Cysteinyl-D-Tyrosyl-D-Tryptophyl-L-Phenylalanyl-L-Phenylalanyl-D-Tryptophyl-L-Lysyl-L-Threonyl-L-Phenylalanyl-L-Threonyl-L-Seryl-L-Cysteine Cyclic (1-12)-Disulfide] (H-C[dY][dW]FF[dW]KTFTSC-OH; disulfide 1-12)
plasma growth hormone (GH) concentration, 2 Hr. (growth hormone (GH); 1 mg/kg. sc, nonfasted male rats, 2 Hr. after injection): 111 ± 14 ng/mL | plasma growth hormone (GH) concentration, 4 Hr. (growth hormone (GH); 1 mg/kg. sc, nonfasted male rats, 4 Hr. after injection): 67 ± 14 ng/mL | plasma growth hormone (GH) concentration, 5 Hr. (growth hormone (GH); 1 mg/kg. sc, nonfasted male rats, 5 Hr. after injection): 151 ± 18 ng/mL | plasma growth hormone (GH) concentration, 2 Hr. (second column headed 2 Hr.) (growth hormone (GH); 1 mg/kg. sc, nonfasted male rats, second 2 Hr. column of table 3): 133 ± 34 ng/mL | GH (growth hormone; 10 μg/kg. s.c., 15 minutes after dose, arginine challenge): 125 ± 26 ng/mL | GH (growth hormone; 100 μg/kg. s.c., 15 minutes after dose, arginine challenge): 43 ± 7 ng/mL | GH (growth hormone; 500 μg/kg. s.c., 15 minutes after dose, arginine challenge): 38 ± 6 ng/mL | Insulin (insulin; 10 μg/kg. s.c.): 162 ± 13 μU/ml. | Insulin (insulin; 100 μg/kg. s.c.): 170 ± 15 μU/ml. | Insulin (insulin; 200 μg/kg. s.c.): 239 ± 17 μU/ml. | Insulin (insulin; 300 μg/kg. s.c.): 153 ± 9 μU/ml. | Insulin (insulin; 500 μg/kg. s.c.): 116 ± 8 μU/ml. | Glucagon (glucagon; 10 μg/kg. s.c.): 36 ± 4 pg/mL | Glucagon (glucagon; 100 μg/kg. s.c.): 5 ± 1 pg/mL | Glucagon (glucagon; 200 μg/kg. s.c.): 44 ± 9 pg/mL | Glucagon (glucagon; 300 μg/kg. s.c.): 38 ± 8 pg/mL | Glucagon (glucagon; 500 μg/kg. s.c.): 18 ± 4 pg/mL

C[C@@H](O)[C@@H]1NC(=O)[C@H](Cc2ccccc2)NC(=O)[C@H]([C@@H](C)O)NC(=O)[C@H](CCCCN)NC(=O)[C@@H](Cc2c[nH]c3ccccc23)NC(=O)[C@H](Cc2ccccc2)NC(=O)[C@H](Cc2ccccc2)NC(=O)[C@@H](Cc2ccc(O)cc2)NC(=O)[C@@H](Cc2c[nH]cn2)NC(=O)[C@@H](N)CSSC[C@@H](C(=O)O)NC(=O)[C@H](CO)NC1=O [C, L-Cysteinyl-D-Histidyl-D-Tyrosyl-L-Phenylalanyl-L-Phenylalanyl-D-Tryptophyl-L-Lysyl-L-Threonyl-L-Phenylalanyl-L-Threonyl-L-Seryl-L-Cysteine Cyclic (1-12)-Disulfide] (H-C[dH][dY]FF[dW]KTFTSC-OH; disulfide 1-12)
GH, 2 Hours (growth hormone (GH); 1000 μg/kg. sc, rats): 34 ± 1 ng/mL | GH, 4 Hours (growth hormone (GH); 1000 μg/kg. sc, rats): 33 ± 2 ng/mL | GH, 5 Hours (growth hormone (GH); 1000 μg/kg. sc, rats): 51 ± 8 ng/mL | GH, 6 Hours (growth hormone (GH); 1000 μg/kg. sc, rats): 36 ± 3 ng/mL | GH, 7 Hours (growth hormone (GH); 1000 μg/kg. sc, rats, 7 hours): 37 ± 5 ng/mL | GH, 8 Hours (growth hormone (GH); 1000 μg/kg. sc, rats, 8 hours): 37 ± 6 ng/mL | GH (growth hormone; 10 μg/kg. s.c., arginine challenge (table 5)): 149 ± 23 | Insulin (insulin; 10 μg/kg. s.c.): 252 ± 41 μU/ml. | Insulin (insulin; 200 μg/kg. s.c.): 254 ± 31 μU/ml. and 273 ± 36 μU/ml. | Glucagon (glucagon; 10 μg/kg. s.c.): 165 ± 13 pg/mL

C[C@@H](O)[C@@H]1NC(=O)[C@H](CCCCN)NC(=O)[C@@H](Cc2c[nH]c3ccccc23)NC(=O)[C@H](Cc2ccccc2)NC(=O)[C@H](Cc2ccccc2)NC(=O)[C@@H](Cc2c[nH]c3ccccc23)NC(=O)[C@@H](Cc2ccc(O)cc2)NC(=O)[C@@H](N)CSSC[C@H](C(=O)O)NC(=O)[C@H](CO)NC(=O)[C@H]([C@@H](C)O)NC(=O)[C@H](Cc2ccccc2)NC1=O [Compound I, L-Cysteinyl-D-Tyrosyl-D-Tryptophyl-L-Phenylalanyl-L-Phenylalanyl-D-Tryptophyl-L-Lysyl-L-Threonyl-L-Phenylalanyl-L-Threonyl-L-Seryl-D-Cysteine Cyclic (1-12)-Disulfide] (H-C[dY][dW]FF[dW]KTFTS[dC]-OH; disulfide 1-12)
GH, 2 Hours (growth hormone (GH); 1000 μg/kg. sc, rats): 49 ± 5 ng/mL | GH, 4 Hours (growth hormone (GH); 1000 μg/kg. sc, rats): 86 ± 11 ng/mL | GH (growth hormone; [1]): 57 ± 14 | Insulin (insulin; 200 μg/kg. s.c.): 236 ± 27 μU/ml. | Glucagon (glucagon; 200 μg/kg. s.c.): 13 ± 2 pg/mL

C[C@@H](O)[C@@H]1NC(=O)[C@H](Cc2ccccc2)NC(=O)[C@H]([C@@H](C)O)NC(=O)[C@H](CCCCN)NC(=O)[C@@H](Cc2c[nH]c3ccccc23)NC(=O)[C@H](Cc2ccccc2)NC(=O)[C@H](Cc2ccccc2)NC(=O)[C@@H](Cc2c[nH]c3ccccc23)NC(=O)[C@@H](CCCNC(=N)N)NC(=O)[C@@H](N)CSSC[C@@H](C(=O)O)NC(=O)[C@H](CO)NC1=O [D, L-Cysteinyl-D-Arginyl-D-Tryptophyl-L-Phenylalanyl-L-Phenylalanyl-D-Tryptophyl-L-Lysyl-L-Threonyl-L-Phenylalanyl-L-Threonyl-L-Seryl-L-Cysteine Cyclic (1-12)-Disulfide] (H-C[dR][dW]FF[dW]KTFTSC-OH; disulfide 1-12)
GH, 2 Hours (growth hormone (GH); 1000 μg/kg. sc, rats): 28 ± 3 ng/mL | GH, 4 Hours (growth hormone (GH); 1000 μg/kg. sc, rats): 11 ± 2 ng/mL | GH (growth hormone; [2]): 21 ± 2 | Insulin (insulin; 100 μg/kg. s.c.): 35 ± 2 μU/ml. | Glucagon (glucagon; 100 μg/kg. s.c.): 53 ± 9 pg/mL

C[C@@H](O)[C@@H]1NC(=O)[C@H](Cc2ccccc2)NC(=O)[C@H]([C@@H](C)O)NC(=O)[C@H](CCCCN)NC(=O)[C@@H](Cc2c[nH]c3ccccc23)NC(=O)[C@H](Cc2ccccc2)NC(=O)[C@H](Cc2ccccc2)NC(=O)[C@@H](Cc2c[nH]cn2)NC(=O)[C@@H](Cc2c[nH]cn2)NC(=O)[C@@H](N)CSSC[C@@H](C(=O)O)NC(=O)[C@H](CO)NC1=O [E, L-Cysteinyl-D-Histidyl-D-Histidyl-L-Phenylalanyl-L-Phenylalanyl-D-Tryptophyl-L-Lysyl-L-Threonyl-L-Phenylalanyl-L-Threonyl-L-Seryl-L-Cysteine Cyclic (1-12)-Disulfide] (H-C[dH][dH]FF[dW]KTFTSC-OH; disulfide 1-12)
GH, 2 Hours (growth hormone (GH); 1000 μg/kg. sc, rats): 36 ± 16 ng/mL | GH, 4 Hours (growth hormone (GH); 1000 μg/kg. sc, rats): 45 ± 10 ng/mL | GH (growth hormone; [1]): 34 ± 3 | Insulin (insulin; 200 μg/kg. s.c.): 182 ± 18 μU/ml. | Glucagon (glucagon; 200 μg/kg. s.c.): 29 ± 12 pg/mL

C[C@@H](O)[C@@H]1NC(=O)[C@H](CCCCN)NC(=O)[C@@H](Cc2c[nH]c3ccccc23)NC(=O)[C@H](Cc2ccccc2)NC(=O)[C@H](Cc2ccccc2)NC(=O)[C@@H](CCCNC(=N)N)NC(=O)[C@@H](Cc2ccc(O)cc2)NC(=O)[C@@H](N)CSSC[C@H](C(=O)O)NC(=O)[C@H](CO)NC(=O)[C@H]([C@@H](C)O)NC(=O)[C@H](Cc2ccccc2)NC1=O [F, L-Cysteinyl-D-Tryrosyl-D-Arginyl-L-Phenylalanyl-L-Phenylalanyl-D-Tryptophyl-L-Lysyl-L-Threonyl-L-Phenylalanyl-L-Threonyl-L-Seryl-D-Cysteine Cyclic (1-12)-Disulfide] (H-C[dY][dR]FF[dW]KTFTS[dC]-OH; disulfide 1-12)
GH, 2 Hours (growth hormone (GH); 1000 μg/kg. sc, rats): 113 ± 34 ng/mL | GH, 4 Hours (growth hormone (GH); 1000 μg/kg. sc, rats): 99 ± 11 ng/mL | GH (growth hormone; [2]): 11 ± 3 | Insulin (insulin; 100 μg/kg. s.c.): 103 ± 24 μU/ml. | Glucagon (glucagon; 100 μg/kg. s.c.): 24 ± 5 pg/mL

CC(C)C[C@H]1NC(=O)[C@@H](N)CSSC[C@@H](C(=O)O)NC(=O)[C@H](CO)NC(=O)[C@H]([C@@H](C)O)NC(=O)[C@H](Cc2ccccc2)NC(=O)[C@H]([C@@H](C)O)NC(=O)[C@H](CCCCN)NC(=O)[C@@H](Cc2c[nH]c3ccccc23)NC(=O)[C@H](Cc2ccccc2)NC(=O)[C@H](Cc2ccccc2)NC(=O)[C@@H](Cc2ccc(O)cc2)NC1=O [G, L-Cysteinyl-D-Leucyl-D-Tyrosyl-L-Phenylalanyl-L-Phenylalanyl-D-Trypotophyl-L-Lysyl-L-Threonyl-L-Phenylalanyl-L-Threonyl-L-Seryl-L-Cysteine Cyclic (1-12)-Disulfide] (H-C[dL][dY]FF[dW]KTFTSC-OH; disulfide 1-12)
GH, 2 Hours (growth hormone (GH); 1000 μg/kg. sc, rats): 84 ± 11 ng/mL | GH, 4 Hours (growth hormone (GH); 1000 μg/kg. sc, rats): 94 ± 23 ng/mL | GH, 5 Hours (growth hormone (GH); 1000 μg/kg. sc, rats): 93 ± 30 ng/mL | GH, 6 Hours (growth hormone (GH); 1000 μg/kg. sc, rats): 72 ± 68 ng/mL | GH (growth hormone; [2]): 29 ± 16 | Insulin (insulin; 100 μg/kg. s.c.): 218 ± 44 μU/ml. | Glucagon (glucagon; 100 μg/kg. s.c.): 28 ± 16 pg/mL

C[C@@H](O)[C@@H]1NC(=O)[C@H](CCCCN)NC(=O)[C@@H](Cc2c[nH]c3ccccc23)NC(=O)[C@H](Cc2ccccc2)NC(=O)[C@H](Cc2ccccc2)NC(=O)[C@@H](Cc2ccc(O)cc2)NC(=O)[C@@H](CCCNC(=N)N)NC(=O)[C@@H](N)CSSC[C@H](C(=O)O)NC(=O)[C@H](CO)NC(=O)[C@H]([C@@H](C)O)NC(=O)[C@H](Cc2ccccc2)NC1=O [H, L-Cysteinyl-D-Arginyl-D-Tyrosyl-L-Phenylalanyl-L-Phenylalanyl-D-Tryptophyl-L-Lysyl-L-Threonyl-L-Phenylalanyl-L-Threonyl-L-Seryl-D-Cysteine Cyclic (1-12)-Disulfide] (H-C[dR][dY]FF[dW]KTFTS[dC]-OH; disulfide 1-12)
GH, 2 Hours (growth hormone (GH); 1000 μg/kg. sc, rats): 75 ± 4 ng/mL | GH, 4 Hours (growth hormone (GH); 1000 μg/kg. sc, rats): 144 ± 21 ng/mL | GH (growth hormone; 25 μg/kg. s.c., arginine challenge (table 5)): 23 ± 4 | Insulin (insulin; 25 μg/kg. s.c.): 128 ± 11 μU/ml. | Glucagon (glucagon; 25 μg/kg. s.c.): 56 ± 6 pg/mL
